# Test results from paper PMC7114261 (Antiviral Research, 2006).
# Several values for one entry are separate records, joined by “and”; a condition that tells them apart may be missing. Equal values may be shown once. Read-outs that look alike come from different tables or passages of the source.
# Assays:
# SARS-CoV, strain Urbani [1] = experiment: microbe, parasite or virus in culture; type: cell-based; conditions: Severe acute respiratory syndrome coronavirus; for IC50: Vero 76, read-out: NR assay IC50
# SARS-CoV (Urbani) = tested on: SARS-CoV (Urbani); set-up: species or system BALB/c mice; conditions: mouse, in vivo
# in vivo = conditions: BALB/c, mouse
# SARS-CoV, strain Urbani [2] = experiment: microbe, parasite or virus in culture; type: cell-based, Severe acute respiratory syndrome coronavirus
# [3] = tested on: cytokines in lung homogenates; set-up: species or system BALB/c mice; conditions: mouse, in vivo
# Vero 76 cells = conditions: African green monkey
# SARS-CoV = conditions: cited from earlier work
# in vitro [4] = conditions: African green monkey
# in vitro [5] = conditions: African green monkey, NR assay CC50
# [6] = Severe acute respiratory syndrome coronavirus, Vero 76, read-out: Virus yield reduction assay IC90
SMILES,"IC50 (SARS-CoV, strain Urbani [1]) [µM]","Virus titer ± S.D., Day 3 (SARS-CoV (Urbani))","Virus titer ± S.D., Day 7 (SARS-CoV (Urbani)) [log10 CCID50/g]",MTD (in vivo) [mg/kg],"IC90 (SARS-CoV, strain Urbani [2]; [6]) [µM]",other results
NC(=O)c1ncn([C@@H]2O[C@H](COP(=O)(O)O)[C@@H](O)[C@H]2O)n1 [Ribavirin monophosphate],> 30,,,,,
"N=C(N)c1ncn([C@@H]2O[C@H](CO)[C@@H](O)[C@H]2O)n1 [Viramidine, viramidine]",> 410,,,,,
"COc1c(C)c2c(c(O)c1C/C=C(\C)CCC(=O)O)C(=O)OC2 [MPA, mycophenolic acid]",> 30,5.5 ± 0.2 log10 CCID50/g and 5.3 ± 0.5 log10 CCID50/g,0,75,,
"NC(=O)c1ncn([C@@H]2O[C@H](CO)[C@@H](O)[C@H]2O)n1 [Ribavirin, ribavirin]",320,,,,560,"EC50 (SARS-CoV, strain Urbani [1]; Vero 76, read-out: EC50 by neutral red uptake assay, n = 4): 270 ± 50 µM; EC90 (SARS-CoV, strain Urbani [2]; Severe acute respiratory syndrome coronavirus, Caco-2, read-out: EC90 by virus yield reduction assay): 4100 µM; EC90 (SARS-CoV, strain Urbani [2]; Severe acute respiratory syndrome coronavirus, MA104, read-out: EC90 by virus yield reduction assay): 225 µM; IC90 (SARS-CoV, strain Urbani [2]; read-out: Virus yield reduction assay IC90): 590 µM; Virus in the lungs of mice sacrificed at day 7 (SARS-CoV (Urbani)): virus was not detected; Virus titer (SARS-CoV (Urbani); 75 mg/kg): 0 log10 CCID50/g; Virus titer (SARS-CoV (Urbani); ip, 20 mg/kg): 0 log10 CCID50/g; GM-CSF level in lung homogenate [3]: 7.9 ± 1.9 pg/mL and 10.7 ± 0.9 pg/mL and 7.9 ± 0.5 pg/mL and 15.7 ± 4.2 pg/mL; IL-4 level in lung homogenate [3]: 5.9 ± 3.5 pg/mL and 6.3 ± 0.3 pg/mL and 4.9 ± 0.9 pg/mL and 7.3 ± 0.5 pg/mL; IL-5 level in lung homogenate [3]: 25.6 ± 2.0 pg/mL and 34.2 ± 2.1 pg/mL and 19.8 ± 1.7 pg/mL and 33.4 ± 0.4 pg/mL; IL-9 level in lung homogenate [3]: 134.2 ± 39.3 pg/mL and 140.9 ± 6.7 pg/mL and 101.5 ± 25.7 pg/mL and 126.3 ± 67.6 pg/mL; average CC50 (Vero 76 cells): ~1685 µg/mL; IC50 (SARS-CoV): 2 to 60 µg/mL; CC50 (in vitro [4]): 283 µM; CC50 (in vitro [5]): 402 µM"
"C#Cc1c(C(N)=O)ncn1[C@@H]1O[C@H](CO)[C@@H](O)[C@H]1O [EICAR, 5-ethynyl-1-β-D-ribofuranosylimidazole-4-carboxamide]",28,5.5 ± 0.5 log10 CCID50/g and 5.3 ± 0.3 log10 CCID50/g,0,75,> 40,
"NC(=O)c1ncn([C@@H]2O[C@H](CO)[C@@H](O)[C@H]2O)c1O [Mizoribine, mizoribine]",> 40,4.9 ± 0.3 log10 CCID50/g and 4.7 ± 0.6 log10 CCID50/g,0,25,,
